Results on 7 molecules are retold here after patent US8691802B2, “Stabilized compositions comprising a therapeutically active agent and an oxidizing preservative” (Allergan, Inc., priority 2005, dated 2014).

Like-named read-outs stand apart in the source and are kept apart here.

The conditions of the series: for Stabilization of chlorine dioxide by the excipient (in words): proprietary brimonidine composition; for Stabilized Chlorine Dioxide Concentration: ingredient added to proprietary brimonidine composition.

Procedure: Each of the excipients was added, in the amounts shown, to a proprietary composition comprising brimonidine as a therapeutically active agent.

As to `CC(=O)C(=O)[O-].[Na+]` [Sodium Pyruvate], the “Stabilization of chlorine dioxide by the excipient (in words)” value (“Stabilization of chlorine dioxide” below) is “similarly ineffective”.

In the case of `NCCN` [Ethylene diamine], the “Stabilization of chlorine dioxide” value was “do not stabilize”.

For `O=C([O-])/C(O)=C(\O)C(=O)[O-].[Na+].[Na+]` [Sodium Dihydroxyfurmarate], the “Stabilized Chlorine Dioxide Concentration” value worked out at 37 ppm (0 Days), 13 ppm (7 Days) and 0 ppm (14 Days).

For `O=C[O-].[Na+]` [Sodium Formate], the “Stabilized Chlorine Dioxide Concentration” value reads like this: (0 Days) 42 ppm; (7 Days) 40 ppm; (14 Days) 36 ppm.

On to `O=C(O)CN(CCN(CC(=O)O)CC(=O)O)CC(=O)O` [EDTA], for which the “Stabilization of chlorine dioxide” value is reported as “do not stabilize”. The “Stabilized Chlorine Dioxide Concentration” value (0 Days) is given as 44 ppm. For the same molecule, the “Stabilized Chlorine Dioxide Concentration” value (7 Days) was 2 ppm. Moreover, the “Stabilized Chlorine Dioxide Concentration” value (14 Days) turned out to be 0 ppm.

With `CC(O)C(=O)[O-].[Na+]` (stereo not shown) [Sodium Lactate], the “Stabilized Chlorine Dioxide Concentration” value (0 Days) was found to be 45 ppm, the “Stabilized Chlorine Dioxide Concentration” value (7 Days) turned out to be 40 ppm and the “Stabilized Chlorine Dioxide Concentration” value (14 Days) amounted to 37 ppm.

As for `O=C([O-])C(=O)[O-].[Na+].[Na+]` [Sodium Oxalate], the “Stabilization of chlorine dioxide” value is listed as “similarly ineffective”. Further, under “0 Days”, the “Stabilized Chlorine Dioxide Concentration” value is listed as 39 ppm. Besides, under “7 Days”, the “Stabilized Chlorine Dioxide Concentration” value is 38 ppm. Besides, the “Stabilized Chlorine Dioxide Concentration” value (14 Days) is reported as 35 ppm.
